Measured values published in patent publication USRE46095E1, “Herbicidal compositions” (BAYER CROPSCIENCE AG, priority 2008, dated 2016).
Counter-ions that a name gives are not always drawn.

Legend:
Format in all cases: in vivo
Erodium cicutarium = experiment: Pre-emergence herbicidal action, pot trials/greenhouse (Example 5.2, Table 5); conditions: evaluation 28 days after treatment
Excerpt: (§1) Seeds or rhizome pieces of monocotyledonous and dicotyledonous harmful plants are placed in sandy loam in pots and covered with soil. The compositions, formulated as concentrated aqueous solutions, wettable powders or emulsion concentrates, are then applied to the surface of the covering soil as an aqueous solution, suspension or emulsion at an application rate of 300 to 800I of water/ha (converted) in a variety of dosages. After the treatment, the pots are placed in a green-house and kept under good growth conditions for the weeds. Visual scoring of plant or emergence damage is carried out after the test plants have emerged after an experimental period of 3 to 4 weeks in comparison with untreated controls.
(§2) The herbicidal efficacy of the active compounds or active compound mixtures was scored visually by comparing the treated pots (soil) with untreated controls. The damage and development of all above-ground plant parts was recorded. Scoring was done on a percentage scale (example values: 100% action=all plants dead or not emerged; 50% action=50% of the plants and green plant parts dead or not emerged; 0% action=no discernible action=like control plot). The score figures of in any case 2 repetitions (pots) were averaged.
(§3) When the data observed already exceed the formal total of the data in the experiments with individual applications, they likewise exceed the expected value according to Colby, which is calculated using the formula below and is likewise regarded as an indication of synergism (cf. S. R. Colby; in Weeds 15 (1967) pp. 20 to 22): E=A+B−(A·B/100)
(§4) In this formula: • A=action of active compound (A) in % at an application rate of a g of AS/ha; • B=action of active compound (B) in % at an application rate of b g of AS/ha; • E=expected value of the action of the combination (A)+(B) in % at the combined application rate a+b g of AS/ha.
(§5) The following abbreviations are used in the description and the tables below: • g of AS/ha=grams of active substance (=100% active compound) per hectare; • the total of the activities of the individual applications is given as E^A; • the expected values according to Colby are in each case given as E^C; Example 5.1
(§6) Certain combinations were tested for their herbicidal activity in accordance with the general example 1 (pre-emergence method).

Geranium dissectum = experiment: Pre-emergence herbicidal action, pot trial/greenhouse (Example 5.3, Table 6); conditions: 672 h, read-out: Herbicidal action [%] against Geranium dissectum; for pest or weed control at 50 g/ha: 50 g of AS/ha
Excerpt: as §1, §2, §3, §4, §5, §6

Ipomoea hederifolia = experiment: Pre-emergence herbicidal action, pot trials/greenhouse (Example 5.1, Table 4); conditions: evaluation 27 days after treatment
Excerpt: as §1, §2, §3, §4, §5, §6

[1] = pot trial/greenhouse, evaluation 28 days after treatment

Structure (SMILES): CCOC(=O)COc1ncccc1Oc1cc(-n2c(=O)cc(C(F)(F)F)n(C)c2=O)c(F)cc1Cl [(B1.3), ethyl [[3-[2-chloro-5-[3,6-dihydro-3-methyl-2,6-dioxo-4-(trifluoromethyl)-1(2H)-pyrimidinyl]-4-fluorophenoxy]-2-pyridinyl]oxy]acetate]
- Herbicidal action [%] against Erodium cicutarium (Erodium cicutarium; 15 g of AS/ha): 65%

Structure (SMILES): CCOC1Oc2ccc(OS(C)(=O)=O)cc2C1(C)C (racemic) [(B2.5), (RS)—O-(2-ethoxy-2,3-dihydro-3,3-dimethylbenzofuran-5-yl)methanesulfonate]
- pest or weed control at 300 g/ha (Geranium dissectum; 300 g of AS/ha, pot trial/greenhouse, evaluation 28 days after treatment): 35%

Structure (SMILES): COCCOCc1nc(C(F)(F)F)ccc1C(=O)C1=C(O)C2CCC(C2)C1=O (stereo not shown) [(B1.6.1), 4-hydroxy-3-[[2-[(2-methoxyethoxy)methyl]-6-trifluoromethyl-3-pyridinyl]carbonyl]-bicyclo[3.2.1]oct-3-en-2-one]
- Herbicidal action [%] against Erodium cicutarium (Erodium cicutarium; 30 g of AS/ha): 55%

Structure (SMILES): Cc1nn(C)c(O)c1C(=O)c1ccc(C(F)(F)F)cc1S(C)(=O)=O [(B2.1.1), (5-hydroxy-1,3-dimethyl-1H-pyrazol-4-yl)-[2-(methylsulfonyl)-4-(trifluoromethyl)-phenyl]methanone]
- pest or weed control at 30 g/ha (Geranium dissectum; 30 g of AS/ha, pot trial/greenhouse, evaluation 28 days after treatment): 20%

Structure (SMILES): COC(=O)c1csc(C)c1S(=O)(=O)NC(=O)n1nc(OC)n(C)c1=O [(B1.1.2), methyl 4-[(4,5-dihydro-3-methoxy-4-methyl-5-oxo-1H-1,2,4-triazol-1-yl)carbonylsulfamoyl]-5-methylthiophene-3-carboxylate]
- Herbicidal action [%] against Ipomoea hederifolia (Ipomoea hederifolia; 0.5 g of AS/ha): 5%
- Herbicidal action [%] against Ipomoea hederifolia (Ipomoea hederifolia; 2.0 g of AS/ha): 50%

Structure (SMILES): CS(=O)(=O)c1ccc(C(=O)C2C(=O)CCCC2=O)c(Cl)c1COCC(F)(F)F [(B1.2.1), 2-{2-chloro-4-mesyl-3-[(2,2,2-trifluoroethoxy)methyl]benzoyl}cyclohexane-1,3-dione]
- Herbicidal action [%] against Erodium cicutarium (Erodium cicutarium; 50 g of AS/ha): 30%

Structure (SMILES): COc1cc(OC)nc(NC(=O)NS(=O)(=O)c2ncccc2OCC(F)(F)F)n1 [(B2.2.2), 1-(4,6-dimethoxypyrimidin-2-yl)-3-[3-(2,2,2-trifluoroethoxy)-2-pyridylsulfonyl]urea sodium salt]
- pest or weed control at 25 g/ha (Geranium dissectum): 45%

Structure (SMILES): Cc1ccc2c(c1)[C@H](Nc1nc(N)nc([C@@H](C)F)n1)[C@@H](C)C2 [(A21), 2-amino-4-[(1R,2S)-2,6-dimethyl-indan-1-ylamino]-6-[(1R)-1-fluoroethyl]-1,3,5-triazine]
- pest or weed control at 0.3 g/ha (Geranium dissectum; 0.3 g of AS/ha, pot trial/greenhouse, evaluation 28 days after treatment): 5%
- pest or weed control at 1.2 g/ha (Geranium dissectum; 1.2 g of AS/ha, pot trial/greenhouse, evaluation 28 days after treatment): 20%
- Herbicidal action [%] against Erodium cicutarium (Erodium cicutarium; 0.2 g of AS/ha): 0%
- Herbicidal action [%] against Erodium cicutarium (Erodium cicutarium; 0.8 g of AS/ha): 25%
- Herbicidal action [%] against Ipomoea hederifolia (Ipomoea hederifolia; 0.2 g of AS/ha): 0%
- Herbicidal action [%] against Ipomoea hederifolia (Ipomoea hederifolia; 0.5 g of AS/ha): 45%

Structure (SMILES): COc1cc(OC)n2nc(NS(=O)(=O)c3c(C(F)(F)F)ccnc3OC)nc2n1 [(B1.4.1), N-(5,7-dimethoxy[1,2,4]triazolo[1,5-a]pyrimidin-2-yl)-2-methoxy-4-(trifluoromethyl)pyridine-3-sulfonamide]
- Herbicidal action [%] against Erodium cicutarium (Erodium cicutarium; 5 g of AS/ha): 50%

Structure (SMILES): Nc1cc(Cl)nc(C(=O)O)c1Cl [(B2.4.1), 4-amino-3,6-dichloropyridine-2-carboxylic acid]
- pest or weed control at 75 g/ha (Geranium dissectum; 75 g of AS/ha, pot trial/greenhouse, evaluation 28 days after treatment): 50%

Structure (SMILES): CC(C)N(C)S(=O)(=O)NC(=O)c1cc(-n2c(=O)cc(C(F)(F)F)n(C)c2=O)c(F)cc1Cl [(B2.3.1), 2-chloro-5-[3,6-dihydro-3-methyl-2,6-dioxo-4-(trifluoromethyl)-1 (2H)-pyrimidinyl]-4-fluoro-N-[[methyl(1-methylethyl)amino]sulfonyl]benzamide]
- pest or weed control at 50 g/ha (Geranium dissectum; [1]): 65%

Structure (SMILES): Nc1nc(C2CC2)nc(C(=O)O)c1Cl [(B2.6.1), 6-amino-5-chloro-2-cyclopropylpyrimidine-4-carboxylic acid]
- pest or weed control at 100 g/ha (Geranium dissectum; 100 g of AS/ha, pot trial/greenhouse, evaluation 28 days after treatment): 65%

Structure (SMILES): Cn1nc(C(F)(F)F)c(CS(=O)(=O)C2=NOC(C)(C)C2)c1OC(F)F [(B3.1), 3-[5-(difluoromethoxy)-1-methyl-3-(trifluoromethyl)pyrazol-4-ylmethylsulfonyl]-4,5-dihydro-5,5-dimethyl-1,2-oxazole]
- pest or weed control at 50 g/ha (Geranium dissectum; [1]): 50%
